Holding throughout (assay type): in vivo
For assay [1], the system named is Erysiphe graminis tritici (powdery mildew). Briefly: Test 1 greenhouse foliar spray screen, powdery mildew on wheat. To be noted: Blumeria graminis, foliar, Test 1, foliar spray on wheat; disease control rating at 400 ppm / 100 ppm; read-out: POWD MDEW.
Assay [2] has as its system Pyricularia oryzae (rice blast). Nature of the assay: whole plant or invertebrate. Particulars: Pyricularia oryzae, foliar, read-out: RICE BLAST, Test 1, foliar spray on rice; disease control rating at 400 ppm / 100 ppm.
In assay [3] the test system is Puccinia recondita tritici (leaf rust). Nature of the assay: Test 1 greenhouse foliar spray screen, leaf rust on wheat. Particulars: Puccinia recondita, foliar, Test 1, foliar spray on wheat; disease control rating at 400 ppm / 100 ppm.
In assay [4] the test system is Botrytis cinerea (gray mold). Nature of the assay: Test 1 greenhouse foliar spray screen, gray mold on grape berries. To be noted: Botrytis cinerea, foliar; Test 1, spray on grape berries; disease control rating at 400 ppm / 100 ppm.
The subject of assay [5] is Pseudoperonospora cubensis (downy mildew). Briefly: Test 1 greenhouse foliar spray screen, downy mildew on squash. To be noted: Pseudoperonospora cubensis, foliar, Test 1, foliar spray on squash; disease control rating at 400 ppm / 100 ppm; read-out: DOWN MDEW.
Assay [6] deals with southern armyworm (Spodopetra eridania Cramer). Nature of the assay: Mite/insect screen, SAW. To be noted: Spodoptera eridania, foliar, percent mortality, foliar spray on squash, read-out: SAW RESULTS %; for mortality at 400 ppm: rate 400 ppm. The procedure, abridged:
(§1)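 Percent mortality was scored after standard exposure periods, following spraying of leaves to runoff (both surfaces, 10 psi, 1 h drying) with water dilutions of compound in emulsifier-containing acetone/alcohol (50:50). Armyworms received excised treated leaves in dishes.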

Assay [7] relates to Twospotted spider mites (Tetranychus urticae Koch). Nature of the assay: Mite/insect screen, SM. To be noted: Tetranychus urticae, foliar, percent mortality, foliar spray on squash, read-out: SM RESULTS %; for mortality at 400 ppm: rate 400 ppm. The procedure, abridged: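 Read-out: percent mortality after standard exposure periods. Test solutions were water dilutions of compound dissolved in acetone/alcohol (50:50) with emulsifier blends; leaves were sprayed to runoff on both surfaces and air-dried for one hour before exposure.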

Assay [8] deals with melon aphids (Aphis gossypii Glover). Briefly: Mite/insect screen, MA. Particulars: Aphis gossypii, foliar, percent mortality, foliar spray on squash, read-out: MA RESULTS %; for mortality at 400 ppm: rate 400 ppm. The procedure, abridged: as §1
Assay [9] concerns corn rootworm. Nature of the assay: Mite/insect screen, CRW. Particulars: percent mortality, read-out: CRW RESULTS %; for mortality at 24 ppm: CRW rate 24.00 ppm. The essentials:
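Corn rootworm mortality (%) was evaluated following standard exposure times. Test material was emulsified by dissolution in acetone/alcohol (1:1) containing sulfonate/nonionic emulsifier blends TOXIMUL R (23 g/L) and TOXIMUL S (13 g/L), and water-diluted to the indicated doses.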

On to `Cc1ccc(CCOc2cc(OCCc3ccc(C)cc3)c3cccc(F)c3n2)cc1` [Example 250, 8-fluoro-2,4-bis[2-(4-methylphenyl)ethoxy]quinoline], for which the pest or weed control at 400 ppm in [1] lay within 0 to 19%; in assay [2] it was 0 to 19%; in [3], 20 to 89%; in assay [4], 0 to 19%; in [5], 20 to 89%. Also, the mortality at 400 ppm in [6], in assay [7] and in assay [8] was 0% in each case. The mortality at 24 ppm in [9] stood at 0%.

In the case of `FC(F)(F)c1ccc2c(CCCc3ccccc3)ccnc2c1` [Example 254, 4-(3-phenylpropyl)-7-(trifluoromethyl)quinoline], the pest or weed control at 400 ppm in [1] fell in the range of 90 to 100%; in assay [2], 90 to 100%; in assay [3], 0 to 19%; in assay [4], 0 to 19%; in assay [5] it was 0 to 19%. The mortality at 400 ppm in assay [6], in assay [7] and in assay [8] was 0% in each case. The mortality at 24 ppm in [9] was 0%.

Consider `Clc1cccc2c(CCCc3ccccc3)ccnc12` [Example 255, 8-chloro-4-(3-phenylpropyl)quinoline], for which the pest or weed control at 400 ppm in assay [1] is 20 to 89%; in assay [2], 90 to 100%; in assay [3], 90 to 100%; in [4] it was 0 to 19%; in assay [5], 20 to 89%. The mortality at 400 ppm in assay [6], in assay [7] and in [8] was 0% in each case. Also, in assay [9], the mortality at 24 ppm came out at 0%.

As for `Fc1cccc2c(CCCc3ccc(-c4ccccc4)cc3)ccnc12` [Example 257, 4-[3-(1,1'-biphenyl)-4-ylpropyl]-8-fluoroquinoline], the pest or weed control at 400 ppm in assay [1] was in the range of 90 to 100%; in assay [2], 20 to 89%; in assay [3], 90 to 100%; in assay [4], 0 to 19%; in assay [5], 90 to 100%. For the same compound, the mortality at 400 ppm in assay [6], in assay [7] and in assay [8] was 0% throughout. Besides, the mortality at 24 ppm in assay [9] was 0%.

Regarding `CC(C)(C)c1ccc(CCOc2ccnc3ccccc23)cc1` [Example 262, 4-[2-[4-(t-butyl)phenyl]ethoxy]quinoline], the pest or weed control at 400 ppm in assay [1] was in the range of 0 to 19%; in assay [2] it was 90 to 100%; in assay [3] it was 90 to 100%; in [4], 0 to 19%; in assay [5] it was 90 to 100%. In addition, the mortality at 200 ppm was 0% in assay [6] (rate 200 ppm), 100% in assay [7] (rate 200 ppm) and 100% in [8] (rate 200 ppm). For the same compound, the mortality at 400 ppm in assay [6] is 0%; in assay [7], 100%; in assay [8], 100%. In [9] (CRW rate 12.00 ppm), the mortality at 12 ppm turned out to be 0%. Besides, in assay [9], the mortality at 24 ppm came to 0%.

Values taken from patent EP0326331B1, “Substituted quinolines and cinnolines” (Dow AgroSciences LLC, priority 1988, dated 1989).
